Measured values published in paper PMC3307802 (MedChemComm, 2011).

Assays:
[1] = biological target: T1, KOP receptors (Homo sapiens, UniProt P41145); conditions: cited from earlier work
[2] = tested on: cocaine-induced drug-seeking; conditions: rats; dose of 0.3 mg/kg or greater; cited from earlier work
[3] = tested on: humans; conditions: vaporized and inhaled; cited from earlier work
[4] = tested on: serotonin 5HT2A receptors; conditions: cited from earlier work
[5] = biological target: T1, KOP receptors; experiment: biochemical; type: biochemical
[6] = tested on: KOP receptor; conditions: cited from earlier work
[7] = biological target: KOP receptor; conditions: cited from earlier work; remark: listed apart in the source
[8] = biological target: T1, KOP receptors; type: binding
[9] = tested on: KOP receptor; experiment: Previously published potency/efficacy at KOP receptors; type: biochemical; conditions: relative to 1

T1 sequence (P41145 whole entry): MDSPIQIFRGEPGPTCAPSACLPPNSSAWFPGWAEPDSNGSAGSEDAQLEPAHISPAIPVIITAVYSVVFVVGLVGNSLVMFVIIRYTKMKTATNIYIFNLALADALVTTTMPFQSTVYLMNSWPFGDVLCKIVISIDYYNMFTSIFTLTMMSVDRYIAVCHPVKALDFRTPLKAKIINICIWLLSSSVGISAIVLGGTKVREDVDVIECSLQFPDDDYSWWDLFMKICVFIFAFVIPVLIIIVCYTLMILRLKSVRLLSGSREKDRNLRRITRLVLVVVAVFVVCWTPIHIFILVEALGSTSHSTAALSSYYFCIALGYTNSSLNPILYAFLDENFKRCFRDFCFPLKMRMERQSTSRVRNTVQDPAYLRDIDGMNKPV

With COC(=O)[C@@H]1C[C@H](OC(C)=O)C(=O)[C@H]2[C@@]1(C)CC[C@H]1C(=O)O[C@H](c3ccoc3)C[C@]21C [Compound 1, salvinorin A] as the molecule, how does the “ED50 ± SD (κ)” value [1] read?
The value was 40 ± 10 nM.

And the “effect on cocaine-primed reinstatement of drug seeking” value [2]?
The value was “attenuate cocaine-primed reinstatement of drug seeking”.

And the “active dose in humans (hallucinogen)” value [3]?
Its value is 4.5 to 21 µg/kg.

And the “activity at serotonin 5HT2A receptors” value [4]?
Its value is “does not have activity”.

With CCOCO[C@H]1C[C@@H](C(=O)OC)[C@]2(C)CC[C@H]3C(=O)O[C@H](c4ccoc4)C[C@]3(C)[C@H]2C1=O [Compound 4] as the molecule, how does the EC50 [5] read?
The EC50 was 0.65 ± 0.17 nM.

For COC(=O)[C@@H]1C[C@H](O[C@@H]2CCCCO2)C(=O)[C@H]2[C@@]1(C)CC[C@H]1C(=O)O[C@H](c3ccoc3)C[C@]21C [Compound 5], which EC50 [5] is on record?
Its EC50 is 60 ± 6 nM.

Which results are given for COC(=O)[C@@H]1C[C@H](O[C@@H]2CCCO2)C(=O)[C@H]2[C@@]1(C)CC[C@H]1C(=O)O[C@H](c3ccoc3)C[C@]21C [Compound 7a]?
EC50 [5]: 1220 ± 230 nM; fold less potent than 1 as agonist [5]: approximately 30 fold

Which results are given for COC(=O)[C@@H]1C[C@H](O[C@H]2CCCO2)C(=O)[C@H]2[C@@]1(C)CC[C@H]1C(=O)O[C@H](c3ccoc3)C[C@]21C [Compound 7b]?
EC50 [5]: 690 ± 80 nM; fold less potent than 1 as agonist [5]: ~17 fold

For CCOC(=O)O[C@H]1C[C@@H](C(=O)OC)[C@]2(C)CC[C@H]3C(=O)O[C@H](c4ccoc4)C[C@]3(C)[C@H]2C1=O [Compound 11], which “affinity at the KOP receptor vs. [3H]bremazocine” value ([6]; vs. [3H]bremazocine) is on record?
The value was “no appreciable affinity”.

And the “affinity at the KOP receptor vs. [3H]diprenorphine” value ([6]; vs. [3H]diprenorphine)?
The value was “no appreciable affinity”.

With CCNC(=O)O[C@H]1C[C@@H](C(=O)OC)[C@]2(C)CC[C@H]3C(=O)O[C@H](c4ccoc4)C[C@]3(C)[C@H]2C1=O [Compound 12] as the molecule, how does the EC50 ([7]; read-out: KOP receptor potency EC50) read?
Its EC50 is over 1000 nM.

With COCO[C@H]1C[C@@H](C(=O)OC)[C@]2(C)CC[C@H]3C(=O)O[C@H](C(=O)N4CCCCC4)C[C@]3(C)[C@H]2C1=O [Compound 14] as the molecule, how does the “KOP binding affinity worse compared to 3” value [8] read?
The value was “roughly 31 fold”.

And the “KOP receptor binding affinity improved over that of 15” value [8]?
Its value is “approximately 2 fold”.

What about the EC50 [5] of the same molecule?
The EC50 was 1930 ± 239 nM.

What about the “fold less potent than 1 as agonist” value [5] of the same molecule?
Its value is 48 fold.

What about the “fold less potent than 3 as agonist” value [5] of the same molecule?
The value was “roughly 322 fold”.

And the “improvement in potency over 15” value [5]?
Its value is “approximately 2.5 fold”.

For COC(=O)[C@@H]1C[C@H](OC(C)=O)C(=O)[C@H]2[C@@]1(C)CC[C@H]1C(=O)O[C@H](C(=O)N3CCCCC3)C[C@]21C [Compound 15, reference compound], which “fold less potent than 1 as agonist (previously published analog)” value [9] is on record?
The value was “approximately 125 fold”.

What about the “potency at KOP receptors ED50” value [7] of the same molecule?
The value was 5110 ± 1800 nM.
